As a reminder, the IC50 is the point on the concentration scale where inhibition reaches its midpoint. Higher therefore signals weaker potency.

Series [1] deals with Swiss albino mice. The experiment in a line: Carageenan induced paw edema, anti-inflammatory activity. In kind it is in vivo. Here is the method:
(§1) Since it is known to produce biphasic pain response—the neurogenic pain and the inflammatory phase, 2% formalin injection was given in the right hind paw of the animals (20 µL) and the response was quantified by counting the number of flinching after 30 min of the compound 1 treatment. The inflammatory phase has been reported in the current investigation since the cyclooxygenase inhibitors are known to ameliorate the latter phase. The involvement of cyclooxygenase and lipooxygenase pathways was studied by pretreatment with substance P and nitric oxide pathway was studied by pretreatment with L-arginine and L-NAME as previously described. Anti-inflammatory activity was examined by using carageenan induced paw edema as per the previous report.
(§2) Swiss albino mice of either sex (25–35 g) were used for determining the analgesic and anti-inflammatory activity of the compounds. The animals were maintained at 22 ± 2 °C under 12 h light/12 h dark cycle with free supply of food and water. The study was approved by the IAEC of Guru Nanak Dev University, Amritsar, Punjab, India. A total of six groups of animals with 5 animals in each group were used. The experimental procedure as described in our previous report[52],[57] was used for studying the analgesic and anti-inflammatory activity of the compounds. All the treatments were given intraperitoneally (i.p.).

Another series in a line: Acute toxicity studies. The format is in vivo. Here is the method: Acute toxicity studies of 1 were carried out at 3 dose levels of 50 mg Kg^−1, 300 mg Kg^−1 and 2000 mg Kg^−1 by periodic monitoring for the first 24 h and daily monitoring for 14 days[56]. […] A few jumping movements were also observed. However, all these behaviours subsided after 60 min. […] Therefore, complying with the design and the results of in vitro studies, the in vivo experiments were gestured with the emergence of a new category of anti-inflammatory agents.
Acute Toxicity Studies[56]. Four groups of animals with three animals per group were taken. The first group was administered the vehicle and served as the control group, the second, third and the fourth groups were treated with 1 at doses of 50 mg Kg^−1, 300 mg Kg^−1 and 2000 mg Kg^−1, respectively. All the treatments were administered after 4 h of fasting. Thereafter, the animals were observed continuously for the first four hours and periodically for 24 h. After 14 days, one animal each in control and highest dose of 1 (2000 mg Kg^−1) was sacrificed and histological studies were conducted using H and E staining.
[56] OECD Guideline for testing of chemicals, 2001. Guideline 423: acute oral toxicity- acute toxic class method, 2001.

Series [2] has as its system Swiss albino mice. The experiment in a line: Formalin induced pain (flinchings), analgesic activity and mechanistic pretreatments. In kind it is in vivo. Here is the method: as §1, §2
Mechanistic studies. Three groups of mice with 5 animals in each group were taken for exploring the inhibition of COX and LOX and modulation of nitric oxide pathway. For COX and LOX pathways, the animals were pretreated with substance P, 30 min before administering 1. For nitric oxide pathway, animals were pretreated with nitric oxide precursor, L-arginine and NOS inhibitor, L-NAME, 30 min before administering 1. The details of the protocols are described in previous reports[52],[57].

Another series concerns the target T1, COX-1 (Ovis aries, UniProt P05979).
T1 construct: purchased Cayman Chemical Co. item no; 560131
T1 sequence (P05979 25-600): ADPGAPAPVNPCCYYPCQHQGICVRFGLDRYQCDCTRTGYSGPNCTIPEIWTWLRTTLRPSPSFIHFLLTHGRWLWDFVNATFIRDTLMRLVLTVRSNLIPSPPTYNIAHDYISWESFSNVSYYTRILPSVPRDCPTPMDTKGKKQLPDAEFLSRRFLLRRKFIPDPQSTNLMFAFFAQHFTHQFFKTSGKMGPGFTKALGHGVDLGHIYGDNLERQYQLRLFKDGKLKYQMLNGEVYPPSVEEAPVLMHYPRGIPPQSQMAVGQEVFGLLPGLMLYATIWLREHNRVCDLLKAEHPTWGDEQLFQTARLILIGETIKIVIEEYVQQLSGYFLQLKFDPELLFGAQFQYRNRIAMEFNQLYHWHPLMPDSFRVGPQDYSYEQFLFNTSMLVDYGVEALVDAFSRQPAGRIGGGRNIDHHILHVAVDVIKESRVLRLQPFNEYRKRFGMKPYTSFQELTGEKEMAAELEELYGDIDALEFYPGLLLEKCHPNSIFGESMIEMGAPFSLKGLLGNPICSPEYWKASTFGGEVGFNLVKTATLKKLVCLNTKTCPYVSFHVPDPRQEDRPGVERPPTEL
The experiment in a line: COX inhibitory enzyme immunoassay (COX-1). In kind it is biochemical. Here is the method:
All the compounds of Fig. 9 were screened for COX-1/2 inhibitory activity in triplicate at 10^–4–10^–8 M concentration by performing enzyme immunoassays. The activity of the compounds was quantified in terms of amount of prostaglandins produced by the enzymes in the presence of different concentrations of the compound.
For studying the COX-1, COX-2 inhibitory activities of the compounds, various reagents were prepared as per the protocol of the assays. The compounds were screened in triplicate at 10^–4–10^–8 M concentration using the procedure as described in the previous report.

Regarding `O=C1NC(=O)C(=Cc2cn(CCCCCCn3c4ccccc4c(=O)c4ccccc43)c3ccccc23)C(=O)N1` [Compound 1], the “reversal of carageenan induced inflammation” value in the series with Swiss albino mice [1] is 90%. The “paw volume after carageenan injection” value with Swiss albino mice [1] (i.p., comparable to indomethacin) was “significant decrease”. The “histological examination of liver, kidney and myocardium” value in the series “Acute toxicity studies” (2000 mg Kg^−1, after 14 days, H and E staining, a few areas of congestion in myocardium and kidney) is “grossly unremarkable”. The “mortality in acute toxicity study” value in the series “Acute toxicity studies” (50, 300 and 2000 mg Kg^−1, oral, 14 days of observation) was “No mortality”. Also, the “behavioural observations in acute toxicity study” value in “Acute toxicity studies” (first 60 min after oral administration, subsided after 60 min) was “excessive licking, sniffing, grooming and restless movements”. Further, the “reversal of formalin induced analgesia” value with Swiss albino mice [2] came out at 90%. The “number of flinchings in neurogenic and inflammatory phase of formalin induced pain” value with Swiss albino mice [2] (10 mg kg^−1, i.p., 2% formalin 30 min after treatment, comparable to indomethacin) was “significant decrease”. The “modulation (attenuation) of analgesic effect by L-NAME pretreatment” value in the series on Swiss albino mice [2] (L-NAME (NOS inhibitor) 30 min before compound) is given as “did not”. For the same compound, the “modulation of analgesic effect by L-arginine pretreatment” value with Swiss albino mice [2] (L-arginine (NO precursor) 30 min before compound) is on record as “attenuated the analgesic effect of 1 partially”. In addition, the “modulation of analgesic effect by Substance P pretreatment” value in the series with Swiss albino mice [2] (Substance P 30 min before compound, complete reversal not evident) is reported as “attenuated the analgesic effect”. The compound also returned an IC50 at COX-1 of 60 µM.

For the origin of these results see PMC7329864, “Role of water in cyclooxygenase catalysis and design of anti-inflammatory agents targeting two sites of the enzyme” (Scientific Reports, 2020).
